Assay results from patent US20230087118A1, “IMIDAZO[1,2-a][sequence] DERIVATIVES AND THEIR USE IN THE TREATMENT OF DISEASE” (priority 2019, published 2023).
Where a name gives a salt, the structure may show the parent alone. Read-outs that look alike come from different tables or passages of the source.

Target: T1, IRAK4 (Homo sapiens, UniProt Q9NWZ3)
T1 sequence (Q9NWZ3 1-460): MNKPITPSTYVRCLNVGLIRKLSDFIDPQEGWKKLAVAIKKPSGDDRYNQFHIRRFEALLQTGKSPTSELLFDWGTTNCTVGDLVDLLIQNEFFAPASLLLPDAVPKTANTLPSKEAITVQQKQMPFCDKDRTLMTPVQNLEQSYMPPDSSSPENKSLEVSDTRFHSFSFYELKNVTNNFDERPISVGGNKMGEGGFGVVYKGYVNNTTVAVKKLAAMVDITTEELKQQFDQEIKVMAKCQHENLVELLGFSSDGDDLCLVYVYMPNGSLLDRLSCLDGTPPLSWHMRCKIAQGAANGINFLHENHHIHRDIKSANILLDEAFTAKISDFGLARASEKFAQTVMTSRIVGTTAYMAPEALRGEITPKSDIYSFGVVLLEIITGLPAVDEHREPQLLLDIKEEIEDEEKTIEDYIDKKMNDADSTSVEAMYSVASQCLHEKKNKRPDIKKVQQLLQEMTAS
Assay: biochemical

[1] = IRAK4 Biochemical Assay (1 mM ATP, 2 h) IC50 (μM), 1 mM ATP, 2 h, 100 pM IRAK4

IC50 | IC50 [1] | Compound
0.0003 µM |  | CC(C)Oc1nc2nc([C@@]34CC[C@@](C)(C3)OC4)cn2cc1C(=O)Nc1cnn2cc(F)cnc12 (single isomer, unassigned) [Example 630]
0.0043 µM |  | CC(C)Oc1cc2nc(C34CCC(C)(C3)OC4)cn2cc1C(=O)Nc1ccc(F)cn1 (stereo not shown) [Example 517, N-(5-fluoropyridin-2-yl)-7-isopropoxy-2-(1-methyl-2-oxabicyclo[2.2.1]heptan-4-yl)imidazo[1,2-a]pyridine-6-carboxamide]
0.0013 µM |  | Cc1cnc2c(NC(=O)c3cn4cc([C@]56CO[C@H](CCO5)C6)nc4nc3OC(C)C)cnn2c1 (single isomer, unassigned) [Example 647]
0.0134 µM |  | CC(C)Oc1nc2nc(C34COC(C)(C3)C4)cn2cc1C(=O)Nc1nc(C(F)(F)F)cs1 [Example 397, 7-Isopropoxy-2-(1-methyl-2-oxabicyclo[2.1.1]hexan-4-yl)-N-(4-(trifluoromethyl)thiazol-2-yl)imidazo[1,2-a]pyrimidine-6-carboxamide]
0.0052 µM |  | COc1cnc2c(NC(=O)c3cn4cc(C56COC(C)(C5)C6)nc4c(F)c3OC(C)C)cnn2c1 [Example 407, 8-Fluoro-7-isopropoxy-N-(6-methoxypyrazolo[1,5-a]pyrimidin-3-yl)-2-(1-methyl-2-oxabicyclo[2.1.1]hexan-4-yl)imidazo[1,2-a]pyridine-6-carboxamide]
0.0016 µM |  | Cn1ccc(NC(=O)c2cn3cc(C45COC(C)(C4)C5)nc3nc2OCC2CC2)n1 [Example 370, 7-(Cyclopropylmethoxy)-N-(1-methyl-1H-pyrazol-3-yl)-2-(1-methyl-2-oxabicyclo[2.1.1]hexan-4-yl)imidazo[1,2-a]pyrimidine-6-carboxamide]
 | 0.0062 µM | CC(C)Oc1cc2nc(C34COC(C)(C3)C4)cn2cc1C(=O)Nc1cc(F)n(C)n1 [Example 641, N-(5-fluoro-1-methyl-1H-pyrazol-3-yl)-7-isopropoxy-2-(1-methyl-2-oxabicyclo[2.1.1]hexan-4-yl)imidazo[1,2-a]pyridine-6-carboxamide trifluoroacetate]
0.0063 µM |  | CCOc1nc(C(=O)Nc2cc(F)cn(C)c2=O)cn2cc([C@@H]3CCCOC3)nc12 (single isomer, unassigned) [Example 596]
0.0002 µM |  | COc1ncccc1NC(=O)c1cn2cc([C@@]34CC[C@@](C)(C3)OC4)nc2nc1OC(C)C (single isomer, unassigned) [Example 578]
0.0047 µM |  | CCOc1nc(C(=O)Nc2cccc(C)c2F)cn2cc(C34COC(C)(C3)C4)nc12 [Example 496, 8-Ethoxy-N-(2-fluoro-3-methylphenyl)-2-(1-methyl-2-oxabicyclo[2.1.1]hexan-4-yl)imidazo[1,2-a]pyrazine-6-carboxamide]
 | 0.0076 µM | CC(C)Oc1nc2nc(C3C4COCC43)cn2cc1C(=O)Nc1ccn(C)n1 (stereo not shown) [Example 396, 2-(3-Oxabicyclo[3.1.0]hexan-6-yl)-7-isopropoxy-N-(1-methyl-1H-pyrazol-3-yl)imidazo[1,2-a]pyrimidine-6-carboxamide formate]
0.0046 µM |  | CC12CC(c3cn4cc(C(=O)Nc5cccn(C(F)F)c5=O)c(OCCOC(F)F)cc4n3)(CO1)C2 [Example 446, 7-(2-(Difluoromethoxy)ethoxy)-N-(1-(difluoromethyl)-2-oxo-1,2-dihydropyridin-3-yl)-2-(1-methyl-2-oxabicyclo[2.1.1]hexan-4-yl)imidazo[1,2-a]pyridine-6-carboxamide]
0.0079 µM |  | CC(C)Oc1nc2nc(C34COC(C)(C3)C4)cn2cc1C(=O)Nc1nc(C(F)F)cs1 [Example 367, N-(4-(difluoromethyl)thiazol-2-yl)-7-isopropoxy-2-(1-methyl-2-oxabicyclo[2.1.1]hexan-4-yl)imidazo[1,2-a]pyrimidine-6-carboxamide]
0.0032 µM |  | CCOc1nc(C(=O)Nc2cccc(C3CC3)n2)cn2cc(C34COC(C)(C3)C4)nc12 [Example 493, N-(6-cyclopropylpyridin-2-yl)-8-ethoxy-2-(1-methyl-2-oxabicyclo[2.1.1]hexan-4-yl)imidazo[1,2-a]pyrazine-6-carboxamide]

Continued, compound first:

Compound | IC50 | IC50 [1]
COCCn1ccc(NC(=O)c2cn3cc(C45COC(C)(C4)C5)nc3cc2OC(C)C)n1 [Example 314, 7-Isopropoxy-N-(1-(2-methoxyethyl)-1H-pyrazol-3-yl)-2-(1-methyl-2-oxabicyclo[2.1.1]hexan-4-yl)imidazo[1,2-a]pyridine-6-carboxamide] | 0.0258 µM | 
CC12CC(c3cn4cc(C(=O)Nc5ccn(C(F)(F)F)n5)c(OC5CCC5)cc4n3)(CO1)C2 [Example 521, 7-Cyclobutoxy-2-(1-methyl-2-oxabicyclo[2.1.1]hexan-4-yl)-N-(1-(trifluoromethyl)-1H-pyrazol-3-yl)imidazo[1,2-a]pyridine-6-carboxamide] | 0.0118 µM | 
CC(C)Oc1cc2nc(C34CC(C3)C4)cn2cc1C(=O)Nc1cccc(C(F)F)n1 [Example 215] | 0.0013 µM | 
COc1ncccc1NC(=O)c1cn2cc(C3CC3)nc2cc1OC1CCC1 [Example 462, 7-Cyclobutoxy-2-cyclopropyl-N-(2-methoxypyridin-3-yl)imidazo[1,2-a]pyridine-6-carboxamide] | 0.0032 µM | 
COc1cccc(NC(=O)c2cn3cc(C(C)(F)F)nc3cc2OC(C)C)n1 [Example 101] | 0.0175 µM | 
COCc1cc2nc(C34COC(C)(C3)C4)cn2cc1C(=O)Nc1ccn(C)n1 [Example 286, 7-(Methoxymethyl)-N-(1-methyl-1H-pyrazol-3-yl)-2-(1-methyl-2-oxabicyclo[2.1.1]hexan-4-yl)imidazo[1,2-a]pyridine-6-carboxamide] | 5.98 µM | 
COc1cccc(NC(=O)c2cn3cc(C4CC4)nc3cc2OC2CCC2)n1 [Example 463, 7-Cyclobutoxy-2-cyclopropyl-N-(6-methoxypyridin-2-yl)imidazo[1,2-a]pyridine-6-carboxamide] | 0.0057 µM | 
Cn1ccc(NC(=O)c2cn3cc(C45COC(C)(C4)C5)nc3c(OC3CCC3)n2)n1 [Example 346, 8-Cyclobutoxy-N-(1-methyl-1H-pyrazol-3-yl)-2-(1-methyl-2-oxabicyclo[2.1.1]hexan-4-yl)imidazo[1,2-a]pyrazine-6-carboxamide] | 0.0085 µM | 
COc1nc(C(=O)Nc2cccc(C(F)(F)F)n2)cn2cc(C3CCOCC3)nc12 [Example 76] |  | 0.0095 µM
Cc1cnc2c(NC(=O)c3cn4cc(C56CCC(C)(CC5)OC6)nc4cc3OC(C)C)cnn2c1 [Example 573, 7-Isopropoxy-2-(1-methyl-2-oxabicyclo[2.2.2]octan-4-yl)-N-(6-methylpyrazolo[1,5-a]pyrimidin-3-yl)imidazo[1,2-a]pyridine-6-carboxamide] |  | 0.0018 µM
COc1ncccc1NC(=O)c1cn2cc(C34COC(C)(C3)C4)nc2cc1OC(F)F [Example 332, 7-(Difluoromethoxy)-N-(2-methoxypyridin-3-yl)-2-(1-methyl-2-oxabicyclo[2.1.1]hexan-4-yl)imidazo[1,2-a]pyridine-6-carboxamide trifluoroacetate] |  | 0.0052 µM
C[C@@]12CC[C@@](c3cn4cc(C(=O)Nc5ccccn5)nc(OC5CCC5)c4n3)(CO1)C2 (single isomer, unassigned) [Example 622] |  | 0.004 µM
COc1nc(C(=O)Nc2cccc(C(F)F)n2)cn2cc(C3CCOCC3)nc12 [Example 206, N-[6-(difluoromethyl)-2-pyridyl]-8-methoxy-2-tetrahydropyran-4-ylimidazo[1,2-a]pyrazine-6-carboxamide trifluoroacetate] |  | 0.0128 µM
CC(C)Oc1cc2nc(C34COC(C)(C3)C4)cn2cc1C(=O)Nc1ccn(C2CCCC2)n1 [Example 315, N-(1-cyclopentyl-1H-pyrazol-3-yl)-7-isopropoxy-2-(1-methyl-2-oxabicyclo[2.1.1]hexan-4-yl)imidazo[1,2-a]pyridine-6-carboxamide trifluoroacetate] |  | 0.0045 µM
Cn1ccc(NC(=O)c2cn3cc(C45COC(C)(C4)C5)nc3cc2OC2CC(C)(C)C2)n1 [Example 440, 7-(3,3-Dimethylcyclobutoxy)-N-(1-methyl-1H-pyrazol-3-yl)-2-(1-methyl-2-oxabicyclo[2.1.1]hexan-4-yl)imidazo[1,2-a]pyridine-6-carboxamide] | 0.0043 µM | 
COc1cc2nc(C3CCOCC3)cn2cc1C(=O)Nc1cc(F)cn(C)c1=O [Example 212, N-(5-fluoro-1-methyl-2-oxo-1,2-dihydropyridin-3-yl)-7-methoxy-2-(tetrahydro-2H-pyran-4-yl)imidazo[1,2-a]pyridine-6-carboxamide trifluoroacetate] |  | 0.016 µM
COc1cccc(NC(=O)c2cn3cc(C4C5COCC54)nc3cc2OC(C)C)n1 (stereo not shown) [Example 254, 2-(3-Oxabicyclo[3.1.0]hexan-6-yl)-7-isopropoxy-N-(6-methoxypyridin-2-yl)imidazo[1,2-a]pyridine-6-carboxamide] | 0.001 µM | 
CC(C)Oc1cc2nc(C34COC(C)(C3)C4)cn2cc1C(=O)Nc1cnn2cccnc12 [Example 299, 7-Isopropoxy-2-(1-methyl-2-oxabicyclo[2.1.1]hexan-4-yl)-N-(pyrazolo[1,5-a]pyrimidin-3-yl)imidazo[1,2-a]pyridine-6-carboxamide trifluoroacetate] |  | 0.0005 µM
CC(C)Oc1nc2nc(C34CC(C)(C3)OC4(C)C)cn2cc1C(=O)Nc1cnn2cc(F)cnc12 [Example 310, N-(6-fluoropyrazolo[1,5-a]pyrimidin-3-yl)-7-isopropoxy-2-(1,3,3-trimethyl-2-oxabicyclo[2.1.1]hexan-4-yl)imidazo[1,2-a]pyrimidine-6-carboxamide] | 0.001 µM | 
CCOc1cc2nc([C@@H]3CC3(F)F)cn2cc1C(=O)Nc1cccc(OC)n1 (single isomer, unassigned) [Example 69] | 0.0444 µM | 
